Test results published in patent US8263757B2, “Promiscuous HER-2/Neu CD4 T cell epitopes” (Dendreon Corporation, priority 2006, dated 2012).

Legend:
[1] = test system: T cell clone HER500.23c21; assay: Epitope mapping of clone HER500.23c21 with individual HER500 15-mer peptides and autologous EBV-LcL (IFNγ ELISA, IL-2 by HT-2 proliferation); type: cell-based, human; conditions: each peptide 1 ug/ml; autologous EBV LCL cells as antigen presenting cells
Experimental: FIG. 2. T cell clone HER500.23.21 is specific for Peptide #63 (HERp270-284). The HER-2/neu epitope was mapped for clone HER500.23.21 and specificity was determined using autologous EBV-LcLs and each individual HER500 peptide #1-125 (15 amino acids in length). The assay was set up in 96 well round bottom plates with autologous EBV-LcLs at 2×10^5 cells/well and the T cell clone HER500.23.21 added at 1×10^5 cells/well. Each peptide was used at a final concentration of 1 ug/mL. The assay was incubated at 37° C. with 5% CO2 for 48 hours at which time supernatant was removed to test for cytokine production. (A) IFNγ production by clone HER500.23.21 was measured using ELISA, calculated pg/mL is shown for each HER500 peptide. (B) IL-2 production was measured using HT-2 cell proliferation.
Identification and Characterization of HER-2/neu specific T cell clones. […]
Cytokine Production. […] IL-2 production was measured using the IL-2 dependent line HT-2 (ATCC). […] TdR was added for the final 6 hours of the assay and plates were harvested to glass fiber filter mats and DNA incorporation of the radioisotope, or proliferative response, was determined by counts per minute using a liquid scintillation counter (PerkinElmer Life and Analytical Sciences, Inc. Boston, Mass.). IFNγ production was measured using anti-human IFNγ antibody pairs for ELISA (BD Pharmingen, San Diego, Calif.). […]

[2] = test system: T cell clone HER500.23c21; assay: HLA-DR promiscuity: HERp270-284 presented by EBV-LcL lines homozygous for HLA-DRB1* alleles to HER500.23c21 (IFNγ ELISA); type: cell-based, human
Experimental: FIG. 4. HERp270-284 is a promiscuous MHC Class II HER-2/Neu epitope. (A) EBV-LcL lines homozygous for various HLA-DR alleles were tested for their ability to present HERp270-284 to clone HER500.23c21. Antigen-specific IFNγ production by HER500.23c21 was above the upper detection limit of the IFNγ ELISA (4000 pg/mL) with all EBV-LcL lines. […] The assay was set up in 96 well round bottom plates in cRPMI+10% FBS with 2×10^5 EBV-LcL/well and 1×10^5 HER500.23c21 cells/well. Peptides were used at a final concentration of 1 μg/mL. The assay was incubated for 48 hours at 37° C. with 5% CO2. Supernatants were harvested, frozen at −20° C. and then analyzed for IFNγ by ELISA. Results are shown for one representative experiment. (B) HERp270-284 was titrated with each EBV LcL line to determine the sensitivity of HER500.23c21 to different alleles. The assay was set up as in (A) except HERp270-284 concentrations are: 10 ng/mL, 33 ng/mL, 66 ng/mL, 100 ng/mL and 250 ng/mL. […] Results are shown for one representative experiment.
Cytokine Production. To determine cytokine production in the antigen specific stimulation assays, after 48 hours, 200 μL of supernatant was pulled from cultures and tested for both IL-2 and IFNγ production. IL-2 production was measured using the IL-2 dependent line HT-2 (ATCC). HT-2 cells were grown in IMDM with 10% FBS and 100 uM NEAA, 1 mM Sodium Pyruvate, 2 mM L-glutamine, […], 50 U/mL Streptomycin, 20 mM HEPES and 20 uM 2-Mercaptoethanol (cIMDM+10% FBS) and fed twice a week with 20 ng/mL rIL-2. For the assay, 4 days after HT-2 cells were split, cells were washed with IMDM+10% FBS to remove all rIL-2, and cells were added to 96 well round bottom plates at 1×10^4 cells/well in cIMDM+10% FBS. Supernatants from antigen specific stimulation were added to wells and plates were incubated 24-30 hours at 37° C. The following day 1 μCi of ^3[H] TdR was added for the final 6 hours of the assay and plates were harvested to glass fiber filter mats and DNA incorporation of the radioisotope, or proliferative response, was determined by counts per minute using a liquid scintillation counter (PerkinElmer Life and Analytical Sciences, Inc. Boston, Mass.). IFNγ production was measured using anti-human IFNγ antibody pairs for ELISA (BD Pharmingen, San Diego, Calif.). Briefly, Immulon 4 plates (Thermo Labsystems/VWR, Brisbane, Calif.) were coated overnight with purified anti-human IFNγ antibody (NIB42) at 3 μg/mL. The next day coating antibody was discarded and 4% Bovine Serum Albumin (BSA) (Sigma, St. Louis, Mo.) in PBS (Invitrogen) was added to wells and plates were incubated for 2 hours at 37° C. Plates were washed with PBS+0.05% Tween 20 and 100 μL of supernatant samples from the antigen specific stimulation was added to wells and incubated at room temperature for 1.25-2 hours. Plates were washed and biotinylated anti-human IFNγ antibody (4S.B3) was diluted in 1% BSA in PBS (1 μg/mL) and added to plates for 1 hour at room temperature. After washing plates, Strep-Avidin HRP (BD Pharmingen) was diluted 1:1000 in PBST and added to wells for 30 minutes at room temperature. Finally, plates were washed and Sigma® Fast OPD was added for 15 minutes in the dark. 2M HCl was added to stop the reaction and plates were read for absorbance at 492 nm on a spectrophotometer.
HLA-DR Restriction and Promiscuity. To determine HLA-DR restriction of the T cell epitope HERp270-284, anti-HLA-DR mAb L243, HLA-DQ mAb 1a3 or HLA-DP mAb B7/21 (20-1.25 μg/mL) were cultured with T cell clone HER.23c21, peptide HERp270-284 and autologous EBV-LcL in cRPMI+10% FBS media. Supernatants were harvested after 48 hours and tested for IL-2 and IFNγ production. HERp270-284 was also tested for HLA-DR promiscuity using EBV-LcL lines purchased from the European Collection of Cell Cultures originating from the 12th International Histocompatibility Workshop (IHW) held in Strasbourg, France. […]

## ALVTYNTDTFESMPN (HER-2/Neu peptide 270-284, HER500 peptide #63, HERp270-284, HER-2/Neu epitope 270-284, residues 3-17 of SEQ ID NO1) [Peptide 63]
[1]
  response of HER500.23c21 measured by IFNγ or IL2 production: responded to only one individual peptide
[2]; 1 ug/ml peptide
  T cell response induced, regardless of the EBV-LCL line used: maximal T cell response
[2]; all HERp270-284 concentrations above 250 ng/mL, each EBV LcL line
  IFNγ production by HER500.23c21 (ELISA), peptide titration: > 4000 pg/mL
[2]; allele DRB1*0401
  lowest peptide concentration able to stimulate Her500.23c21: 10 ng/mL
[2]; allele DRB1*1103
  peptide concentration below which allele was unable to stimulate Her500.23c21: ≥ 250 ng/mL
[2]; panel of 25 EBV LcL lines homozygous for different HLA-DRB1* alleles, 13 DR serological families
  number of HLA-DRB1* alleles for which the epitope is promiscuous (presented to HER500.23c21): at least 25
[2]; peptide 1 μg/mL, all EBV-LcL lines, 48 hours, upper detection limit 4000 pg/mL
  Antigen-specific IFNγ production by HER500.23c21 (ELISA): > 4000 pg/mL
